# Experimental data taken from the supplement of paper PMC10307832.
# Legend:
# Assay in all cases: relative viability (nuclei count vs DMSO), 5 days (fraction); higher = more cells survive
# A-427 = tested on: A-427
# Procedure, shortened: (§1)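 Nuclei were stained with Hoechst during a one-step fixation (final 0.05% Triton X-100, 1% formaldehyde, 1 ug/ml Hoechst) carried out 5 days after dosing, then counted on 4× images. The cells, lung cancer lines in 1536-well plates, had been dosed by pin tool the day after seeding with one drug alone or a fixed anchor-drug dose plus five library-drug doses (not always all listed) in √10 steps. Relative viability is the nuclei count in treated wells divided by that in vehicle wells, and each value is the median of duplicate plates.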
# NCI-H460 = tested on: NCI-H460
# Procedure, shortened: as §1
# SK-LU-1 = tested on: SK-LU-1
# Procedure, shortened: as §1
# NCI-H1792 = tested on: NCI-H1792
# Procedure, shortened: as §1
# NCI-H1944 = tested on: NCI-H1944
# Procedure, shortened: as §1
# NCI-H1915 = tested on: NCI-H1915
# Procedure, shortened: as §1
# UMC-11 = tested on: UMC-11
# Procedure, shortened: as §1
# NCI-H2170 = tested on: NCI-H2170
# Procedure, shortened: as §1
# NCI-H358 = tested on: NCI-H358
# Procedure, shortened: as §1
# LC-2-ad = tested on: LC-2-ad
# Procedure, shortened: as §1
# SW 900 = tested on: SW 900
# Procedure, shortened: as §1
# NCI-H2085 = tested on: NCI-H2085
# Procedure, shortened: as §1
# LXF-289 = tested on: LXF-289
# Procedure, shortened: as §1
# HOP-62 = tested on: HOP-62
# Procedure, shortened: as §1
# NCI-H1666 = tested on: NCI-H1666
# Procedure, shortened: as §1
# EPLC-272H = tested on: EPLC-272H
# Procedure, shortened: as §1
# HCC-78 = tested on: HCC-78
# Procedure, shortened: as §1
# HCC-366 = tested on: HCC-366
# Procedure, shortened: as §1
# NCI-H2009 = tested on: NCI-H2009
# Procedure, shortened: as §1
# NCI-H1793 = tested on: NCI-H1793
# Procedure, shortened: as §1
# COR-L 105 = tested on: COR-L 105
# Procedure, shortened: as §1
# LU99A = tested on: LU99A
# Procedure, shortened: as §1
structure (smiles),measurement,setting,value
CCN(CC)CCCCNc1ncc2cc(-c3cc(OC)cc(OC)c3)c(NC(=O)NC(C)(C)C)nc2n1 + Nc1nc2[nH]cc(CCc3ccc(C(=O)N[C@@H](CCC(=O)O)C(=O)O)cc3)c2c(=O)[nH]1 [Pemetrexed] (partner 0.2 µM),relative viability,A-427; first compound 0.01 µM,1.01
same,relative viability,A-427; first compound 0.03162 µM,1
same,relative viability,A-427; first compound 0.1 µM,1.06
same,relative viability,A-427; first compound 0.3162 µM,1.23
same,relative viability,A-427; first compound 1 µM,0.965
same,relative viability,NCI-H460; first compound 0.01 µM,0.0558
same,relative viability,NCI-H460; first compound 0.03162 µM,0.0576
same,relative viability,NCI-H460; first compound 0.1 µM,0.0567
same,relative viability,NCI-H460; first compound 0.3162 µM,0.056
same,relative viability,NCI-H460; first compound 1 µM,0.0563
same,relative viability,SK-LU-1; first compound 0.01 µM,0.971
same,relative viability,SK-LU-1; first compound 0.03162 µM,0.93
same,relative viability,SK-LU-1; first compound 0.1 µM,1.1
same,relative viability,SK-LU-1; first compound 0.3162 µM,1.18
same,relative viability,SK-LU-1; first compound 1 µM,0.854
same,relative viability,NCI-H1792; first compound 0.01 µM,1.17
same,relative viability,NCI-H1792; first compound 0.03162 µM,0.932
same,relative viability,NCI-H1792; first compound 0.1 µM,0.634
same,relative viability,NCI-H1792; first compound 0.3162 µM,0.945
same,relative viability,NCI-H1792; first compound 1 µM,0.296
same,relative viability,NCI-H1944; first compound 0.01 µM,0.603
same,relative viability,NCI-H1944; first compound 0.03162 µM,0.804
same,relative viability,NCI-H1944; first compound 0.1 µM,0.705
same,relative viability,NCI-H1944; first compound 0.3162 µM,0.631
same,relative viability,NCI-H1944; first compound 1 µM,0.605
same,relative viability,NCI-H1915; first compound 0.01 µM,0.511
same,relative viability,NCI-H1915; first compound 0.03162 µM,0.521
same,relative viability,NCI-H1915; first compound 0.1 µM,0.558
same,relative viability,NCI-H1915; first compound 0.3162 µM,0.518
same,relative viability,NCI-H1915; first compound 1 µM,0.445
same,relative viability,UMC-11; first compound 0.01 µM,0.862
same,relative viability,UMC-11; first compound 0.03162 µM,0.767
same,relative viability,UMC-11; first compound 0.1 µM,0.969
same,relative viability,UMC-11; first compound 0.3162 µM,0.986
same,relative viability,UMC-11; first compound 1 µM,0.696
same,relative viability,NCI-H2170; first compound 0.01 µM,0.251
same,relative viability,NCI-H2170; first compound 0.03162 µM,0.293
same,relative viability,NCI-H2170; first compound 0.1 µM,0.262
same,relative viability,NCI-H2170; first compound 0.3162 µM,0.238
same,relative viability,NCI-H2170; first compound 1 µM,0.275
same,relative viability,NCI-H358; first compound 0.01 µM,0.163
same,relative viability,NCI-H358; first compound 0.03162 µM,0.169
same,relative viability,NCI-H358; first compound 0.1 µM,0.16
same,relative viability,NCI-H358; first compound 0.3162 µM,0.216
same,relative viability,NCI-H358; first compound 1 µM,0.167
same,relative viability,LC-2-ad; first compound 0.01 µM,0.293
same,relative viability,LC-2-ad; first compound 0.03162 µM,0.267
same,relative viability,LC-2-ad; first compound 0.1 µM,0.272
same,relative viability,LC-2-ad; first compound 0.3162 µM,0.264
same,relative viability,LC-2-ad; first compound 1 µM,0.271
same,relative viability,SW 900; first compound 0.01 µM,0.529
same,relative viability,SW 900; first compound 0.03162 µM,0.461
same,relative viability,SW 900; first compound 0.1 µM,0.517
same,relative viability,SW 900; first compound 0.3162 µM,0.509
same,relative viability,SW 900; first compound 1 µM,0.309
same,relative viability,NCI-H2085; first compound 0.01 µM,0.882
same,relative viability,NCI-H2085; first compound 0.03162 µM,0.898
same,relative viability,NCI-H2085; first compound 0.1 µM,0.894
same,relative viability,NCI-H2085; first compound 0.3162 µM,1.02
same,relative viability,NCI-H2085; first compound 1 µM,0.86
same,relative viability,LXF-289; first compound 0.01 µM,0.923
same,relative viability,LXF-289; first compound 0.03162 µM,1.02
same,relative viability,LXF-289; first compound 0.1 µM,0.907
same,relative viability,LXF-289; first compound 0.3162 µM,0.884
same,relative viability,LXF-289; first compound 1 µM,0.849
same,relative viability,HOP-62; first compound 0.01 µM,0.33
same,relative viability,HOP-62; first compound 0.03162 µM,0.275
same,relative viability,HOP-62; first compound 0.1 µM,0.362
same,relative viability,HOP-62; first compound 0.3162 µM,0.314
same,relative viability,HOP-62; first compound 1 µM,0.351
same,relative viability,NCI-H1666; first compound 0.01 µM,0.814
same,relative viability,NCI-H1666; first compound 0.03162 µM,0.796
same,relative viability,NCI-H1666; first compound 0.1 µM,0.783
same,relative viability,NCI-H1666; first compound 0.3162 µM,0.942
same,relative viability,NCI-H1666; first compound 1 µM,0.808
same,relative viability,EPLC-272H; first compound 0.01 µM,0.386
same,relative viability,EPLC-272H; first compound 0.03162 µM,0.271
same,relative viability,EPLC-272H; first compound 0.1 µM,0.334
same,relative viability,EPLC-272H; first compound 0.3162 µM,0.317
same,relative viability,EPLC-272H; first compound 1 µM,0.26
same,relative viability,HCC-78; first compound 0.01 µM,0.919
same,relative viability,HCC-78; first compound 0.03162 µM,0.933
same,relative viability,HCC-78; first compound 0.1 µM,0.949
same,relative viability,HCC-78; first compound 0.3162 µM,0.947
same,relative viability,HCC-78; first compound 1 µM,0.89
same,relative viability,HCC-366; first compound 0.01 µM,0.164
same,relative viability,HCC-366; first compound 0.03162 µM,0.172
same,relative viability,HCC-366; first compound 0.1 µM,0.19
same,relative viability,HCC-366; first compound 0.3162 µM,0.172
same,relative viability,HCC-366; first compound 1 µM,0.191
same,relative viability,NCI-H2009; first compound 0.01 µM,1.12
same,relative viability,NCI-H2009; first compound 0.03162 µM,1.03
same,relative viability,NCI-H2009; first compound 0.1 µM,1.08
same,relative viability,NCI-H2009; first compound 0.3162 µM,1.18
same,relative viability,NCI-H2009; first compound 1 µM,0.988
same,relative viability,NCI-H1793; first compound 0.01 µM,0.88
same,relative viability,NCI-H1793; first compound 0.03162 µM,0.815
same,relative viability,NCI-H1793; first compound 0.1 µM,0.988
same,relative viability,NCI-H1793; first compound 0.3162 µM,0.949
same,relative viability,NCI-H1793; first compound 1 µM,0.548
same,relative viability,COR-L 105; first compound 0.01 µM,1.23
same,relative viability,COR-L 105; first compound 0.03162 µM,1.12
same,relative viability,COR-L 105; first compound 0.1 µM,1.18
same,relative viability,COR-L 105; first compound 0.3162 µM,1.47
same,relative viability,COR-L 105; first compound 1 µM,1.05
same,relative viability,LU99A; first compound 0.01 µM,0.206
same,relative viability,LU99A; first compound 0.03162 µM,0.177
same,relative viability,LU99A; first compound 0.1 µM,0.214
same,relative viability,LU99A; first compound 0.3162 µM,0.177
same,relative viability,LU99A; first compound 1 µM,0.195
